Reference: patent US6699716B2, “In vivo induction for enhanced function of isolated hepatocytes” (priority 1999, dated 2004)

Tests used:
CYPIIB1 [1] = experiment: PROD conversion to resorufin by in vivo induced hepatocytes; design: species or system porcine; details: for Degree of isozyme activity increase over noninduced control: PROD substrate, hepatocytes induced in vivo
Description: (§1) Cells were isolated using a modification of the Seglen method which has been described earlier (Seglen, P., Preparation of isolated rat liver cells, In Meth. in Cell. Bio. (D M Prescott, ed.), vol. 13. Academic Press (NY, N.Y.), 1976.). Briefly, the exposed liver was cannulated and perfused in situ with cold Lactated Ringers (Baxter, Deerfield, Ill.) at 250 ml/minute before excision and transport to the lab. The liver was quickly warmed and perfused with 0.2% EDTA at 37° C. This was followed by perfusion of 1 mg/ml collagenase (Life Technologies, Grand Island, N.Y.) at 37° C. until digestion appeared complete (mean digestion 22±4 min). Further digestion was stopped with the addition of cold HBSS (BioWhittaker, Walkersville, Md.) supplemented with 10% NBCS (Hyclone, Logan, Utah). Undigested tissue and gall bladder were excised and the remainder of the tissue passed through 200 and 100 micron stainless steel sieves (Fisher Scientific, Pittsburgh, Pa.). The cell suspension was washed twice and the cell pellet resuspended in culture media. Viability was determined by Trypan blue exclusion and Calcein AM staining (Molecular Probes, Eugene, Oreg.). Hepatocytes derived from the isolation process following in vivo induction show lower viability when compared to control conditions (77% n=7 versus 89% n=40), yet the cells detoxify xenobiotics at a greater rate. Immediately after isolation, 10^6 cells were assayed for total protein with the BCA kit (Pierce Biochemical, Rockford, Ill.).
(§2) Cells were plated onto 60 mm tissue culture dishes at a density of 2×10^6 cells per dish (Corning, Corning, N.Y.) in Williams' E media supplemented with 1% NBCS (newborn calf serum), 4.5 g/L glucose, 0.5 U/ml bovine insulin, 7 ng/ml glucagon, 7.5 μg/ml hydrocortisone, 10 mM HEPES (Sigma), 20 ng/ml EGF, […] (Life Technologies), 10 IU/ml penicillin and 10 μg/ml streptomycin (BioWhittaker). Hepatocytes were incubated at 37° C. in humidified 10% CO2. Culture medium was changed on day 1 post-isolation and then every 2-3 days. Media samples taken at each change were stored for assay of albumin and urea.

CYPIA2 [2] = experiment: MROD conversion to resorufin by in vitro induced hepatocytes; format: cell-based, porcine; details: in vitro induction 5 μM for 24 hours; two million hepatocytes, day 2 of culture
Description: (§3) For comparison, in vitro induced hepatocyte cultures were prepared. Hepatocytes were procured using the method described above but from non-induced pigs and then induced in culture. Cells were plated onto 60 mm tissue culture dishes (Corning, Corning, N.Y.) in Williams' E media supplemented with 1% NBCS (newborn calf serum), 4.5 g/L glucose, 0.5 U/ml bovine insulin, 7 ng/ml glucagon, 7.5 μg/ml hydrocortisone, 10 mM HEPES (Sigma), 20 ng/ml EGF, […] (Life Technologies), 10 IU/ml penicillin and 10 μ/ml streptomycin (BioWhittaker). […]
(§4) To measure increased isozyme activity in both in vivo and in vitro induced cultures compared to non-induced controls, both in vivo induced and in vitro induced cultures from Example 1 were incubated with EROD, MROD, PROD or BROD (Molecular Probes) at 5 μM (in Williams' E media without serum and phenol red). […] Samples were analyzed in a Turner 450 fluorometer at 540ex and 585em nm. Resorufin formation was quantified using a standard curve that was linear from 0.5 to 130 nM and data are expressed as net resorufin gain over background fluorescence. In this assay, conversion of the alkoxyresorufins to resorufin corresponds to an increase in fluorescence such that the ratio of fluorescences, or activity, corresponds directly to the level of P450 activity of a particular set of isoenzymes.

CYPIIB1 [3] = experiment: Diazepam clearance by in vivo induced hepatocytes; design: species or system porcine
Description: as §1, with “Ill.). […]” for “Ill.).”
Diazepam clearance was assayed in the cultures of Example 1 using a method similar to that of Jauregui et al. Xenobiotic induction of P-450 PB-4 (IIB1) and P-450c (IA1) and associated monooxygenase activities in primary cultures of adult rat hepatocytes. […] This reverse phase HPLC run was conducted at a flow rate of 1.0 ml/min through a micro-Bondpak C18 column (Waters) with absorbance set at 254 nm. […]

CYPIA1 [4] = experiment: EROD conversion to resorufin by in vivo induced hepatocytes; design: species or system porcine; details: for Degree of isozyme activity increase over noninduced control: EROD substrate, hepatocytes induced in vivo, 10 to 15 mg/kg
Description: as §1
as §2, with “Media samples taken at each change were stored for assay of albumin and urea.” left out

CYPIIB1 [5] = experiment: PROD conversion to resorufin by in vitro induced hepatocytes; format: cell-based, porcine
Description: as §3, §4

CYPIA1 [6] = experiment: EROD conversion to resorufin by in vitro induced hepatocytes; format: cell-based, porcine
Description: For comparison, in vitro induced hepatocyte cultures were prepared. Hepatocytes were procured using the method described above but from non-induced pigs and then induced in culture. Cells were plated onto 60 mm tissue culture dishes (Corning, Corning, N.Y.) in Williams' E media supplemented with 1% NBCS (newborn calf serum), 4.5 g/L glucose, 0.5 U/ml bovine insulin, 7 ng/ml glucagon, 7.5 μg/ml hydrocortisone, 10 mM HEPES (Sigma), 20 ng/ml EGF, […] (Life Technologies), 10 IU/ml penicillin and 10 μ/ml streptomycin (BioWhittaker). Experimental conditions were treated with culture medium containing any one of the following: 2 mM phenobarbital (PB; Sigma) for 96 hours, 50 μM β-naphthoflavone (BNF; Sigma) for 24 hours, or 5 μM 3-methlycholanthrene (3-MC; Sigma) for 24 hours.
(§5) To measure increased isozyme activity in both in vivo and in vitro induced cultures compared to non-induced controls, both in vivo induced and in vitro induced cultures from Example 1 were incubated with EROD, MROD, PROD or BROD (Molecular Probes) at 5 μM (in Williams' E media without serum and phenol red). Dicumarol (80 μM, Sigma) was included in the incubation to limit cytosolic degradation of the resorufin end product. Samples were analyzed in a Turner 450 fluorometer at 540ex and 585em nm. Resorufin formation was quantified using a standard curve that was linear from 0.5 to 130 nM and data are expressed as net resorufin gain over background fluorescence. In this assay, conversion of the alkoxyresorufins to resorufin corresponds to an increase in fluorescence such that the ratio of fluorescences, or activity, corresponds directly to the level of P450 activity of a particular set of isoenzymes.

CYPIA2 [7] = experiment: MROD conversion to resorufin by in vivo induced hepatocytes; design: species or system porcine; details: for Degree of isozyme activity increase over noninduced control: MROD substrate, hepatocytes induced in vivo, 10 to 15 mg/kg
Description: as §5

CYPIA2 [8] = experiment: Lidocaine clearance by in vivo induced hepatocytes; design: species or system porcine; details: Lidocaine substrate (clearance), 40 to 80 mg/kg
Description: A series of in vivo induction studies utilized various doses and injection regimes ranging from 40 to 80 mg/kg on days −4 to −1 with phenobarbital in PBS; 3-methlycholanthrene (in DMSO or benzene);or, β-naphthoflavone (in DMSO) given at 5 to 15 mg/kg on days −3, −2 and/or −1 prior to surgical removal of the liver. Yorkshire/Hampshire crossbred pigs weighing 8.3±3.0 kg were obtained from E M Parsons (Hadley, Mass.). All injections of induction agents were administered into the peritoneal cavity.
Cells were isolated using a modification of the Seglen method which has been described earlier (Seglen, P., Preparation of isolated rat liver cells, In Meth. in Cell. Bio. (D M Prescott, ed.), vol. 13. Academic Press (NY, N.Y.), 1976.). […] Viability was determined by Trypan blue exclusion and Calcein AM staining (Molecular Probes, Eugene, Oreg.). […]
Lidocaine (Paddock Laboratories Inc., Minneapolis, Minn.) clearance was assayed using a modification of the protocol of Nyberg et al. Pharmacokinetic analysis verifies P450function in in vitro and in vivo application of a bioartificial liver, ASAIO, 39:M252-M256, 1993. […] The reverse phase HPLC was carried out with a flow rate of 1 ml/minute on a Microsorb C8 column (Rainin Instrument Co., Woburn, Mass.) at room temperature and monitored at 214 nm. […]

[9] = test system: CYPIIB2 and CYPIIB1 isozymes; experiment: Maintenance of isozyme function four days after plating of in vivo induced hepatocytes; details: in vivo induced with 40 to 80 mg/kg once each day, 4 doses
Description: as §5

CYPIA2 [10] = experiment: 7-Ethoxycoumarin metabolism by in vivo induced hepatocytes; design: species or system porcine
CYPIIB2 [11] = experiment: BROD conversion to resorufin by in vitro induced hepatocytes; format: cell-based, porcine
Description: as §3, §4

CYPIIB2 [12] = experiment: BROD conversion to resorufin by in vivo induced hepatocytes; design: species or system porcine
Description: as §1, §2

[13] = three daily injections in vivo, day one of culture, 2x10^6 cells on 60 mm dish

## Cc1ccc2cc3c(ccc4ccccc43)c3c2c1CC3 [3-Methylcholanthrene, 3-methylcholanthrene]
CYPIIB1 [1]; 10 to 15 mg/kg
  Degree of isozyme activity increase over noninduced control: 2 to 10-fold
CYPIIB1 [1]; in vivo administration
  upregulation of CYPIIB1 (PROD): 8.4 fold
CYPIA2 [2]
  conversion rate relative to control rate: 4 fold
CYPIIB1 [3]; Diazepam substrate (clearance), 10 to 15 mg/kg
  Degree of isozyme activity increase over noninduced control: 2 to 10-fold
CYPIIB1 [3]; Diazepam substrate (clearance), 10 to 15 mg/kg, listed as 3-methlycholanthrene
  Degree of isozyme activity increase over noninduced control: 2 to 10 fold
CYPIA1 [4]
  Degree of isozyme activity increase over noninduced control: 10 to 20-fold
CYPIA1 [4]; in vivo induction, EROD
  increase over noninduced controls: 24 fold
CYPIIB1 [5]; in vitro induction
  effect on CYPIIB1 (upregulation): not observed
CYPIA1 [6]; in vitro induction 5 μM for 24 hours, two million hepatocytes, day 2 of culture
  conversion rate relative to control rate: 18 fold
CYPIA2 [7]
  Degree of isozyme activity increase over noninduced control: 2 to 10-fold
CYPIA2 [7]; in vivo induction, MROD
  increase over noninduced controls: 7.6 fold

## O=c1cc(-c2ccccc2)oc2ccc3ccccc3c12 [Beta-Naphthoflavone, beta-naphthoflavone]
CYPIA1 [4]
  Degree of isozyme activity increase over noninduced control: 2 to 10-fold
CYPIA1 [6]; in vitro induction 24 hours, 50 μM
  increase in function over control metabolic conversion of EROD: 14.8 fold
CYPIA1 [6]; in vitro induction 24 hours, 50 μM, EROD, control 0.27 nM
  resorufin formed per minute: 4.0 nM
CYPIA2 [7]
  Degree of isozyme activity increase over noninduced control: 2 to 10-fold

## CCC1(c2ccccc2)C(=O)NC(=O)NC1=O [Phenobarbital, phenobarbital]
CYPIIB1 [1]; 40 to 80 mg/kg
  Degree of isozyme activity increase over noninduced control: 2 to 40-fold
CYPIIB1 [1]; [13]
  upregulation following in vivo induction: 38 fold
CYPIA2 [8]
  Degree of isozyme activity increase over noninduced control: 10 to 20-fold
CYPIA2 [8]; listed as phenobarbital
  Degree of isozyme activity increase over noninduced control: 10 to 20 fold
[9]
  reduction of cytochrome P450 activity four days after plating: about 50%
CYPIIB1 [3]; Diazepam substrate, 40 to 80 mg/kg
  Degree of isozyme activity increase over noninduced control: 20 to 50-fold
CYPIIB1 [5]; in vitro induction 96 hours (2 mM), PROD, 3 hours incubation
  higher rate of PROD metabolism following treatment: 3 fold
CYPIA2 [10]; 7-EC substrate, hepatocytes induced in vivo, 40 to 80 mg/kg
  Degree of isozyme activity increase over noninduced control: 20 to 50-fold
CYPIA2 [10]; in vivo induced, 24 hours after adding 7-ethoxycoumarin, noninduced 2.58±1.9
  umbelliferone production rate: 346±41.4 nM per hour
CYPIIB2 [11]; in vitro induction 96 hours (2 mM), BROD, 3 hours incubation, day 4 of culture
  increase in function over noninduced controls: 8.4 fold
CYPIIB2 [11]; in vitro induction, day 4
  rate of resorufin formation from the BROD substrate: about 0.33 nM resorufin formed per minute
CYPIIB2 [12]; BROD substrate, hepatocytes induced in vivo, 40 to 80 mg/kg
  Degree of isozyme activity increase over noninduced control: 20 to 100-fold
CYPIIB2 [12]; in vivo induction, day 1
  rate of resorufin formation from the BROD substrate: approximately 10.4 nM resorufin per minute
CYPIIB2 [12]; [13]
  increase in function following in vivo induction: 70 fold
CYPIIB2 [12]; versus control 0.15 nM per minute
  rate relative to average control rate of resorufin formed on day 1 from BROD: 69 times
